Results: patent publication US10550105B2 (Ribon Therapeutics Inc., priority 2018, dated 2020)

Columns and labels:
Experiment in all cases: Growth inhibition of cancer cell lines, 144 hours (CellTiter-Glo)
Format in all cases: cell-based
A101D = details: Homo sapiens, melanoma
Description: (§1) Example C: Inhibition of Cancer Cell Growth by Treatment with PARP7 Inhibitors
(§2) Table A-2 and Table A-3 (below) represents the concentration that causes 50% growth inhibition (GI50) in a panel of cancer cell lines with Compound 18B and Compound 561. Cells were plated into 384-well plates at a pre-specified density in fetal bovine serum-containing media. Cells were treated with compound or vehicle (DMSO) 24 hrs later, and a day zero plate was collected for analysis. Test compound plates were incubated continuously for 72 hrs (Table A-2) or 144 hours (Table A-3) cell growth was assessed using a luminescent cell viability assay (CellTiter-Glo, Promega). The GI50was determined by correcting for the cell count at time zero (time of treatment) and plotting data as percent growth relative to vehicle-treated cells.

ACC-MESO-1 = details: mesothelioma
Description: as §1, §2

AGS = details: Homo sapiens, gastric adenocarcinoma
Description: as §1, §2

CAL-27 = details: Homo sapiens, tongue squamous cell carcinoma
Description: as §1, §2

COLO 680N = details: Homo sapiens, esophageal squamous cell carcinoma
Description: as §1, §2

COR-L105 = details: Homo sapiens, lung adenocarcinoma
Description: as §1, §2

Caki-1 = details: Homo sapiens, clear cell renal cell carcinoma
Description: as §1, §2

EBC-1 = details: Homo sapiens, squamous cell lung carcinoma
Description: as §1, §2

GCT = details: Homo sapiens, undifferentiated pleiomorphic sarcoma
Description: as §1, §2

H4 = details: neuroglioma
Description: as §1, §2

HCC1954 = details: Homo sapiens, ductal breast carcinoma
Description: as §1, §2

HCC827 = details: Homo sapiens, lung adenocarcinoma
Description: as §1, §2

HT-1080 = details: Homo sapiens, fibrosarcoma
Description: as §1, §2

IA-LM = details: large cell lung carcinoma
Description: as §1, §2

KALS-1 = details: Homo sapiens, glioblastoma
Description: as §1, §2

KMBC-2 = details: bladder carcinoma
Description: as §1, §2

KMRC-3 = details: clear cell renal carcinoma
Description: as §1, §2

MDA-MB-468 = details: Homo sapiens, breast adenocarcinoma
Description: as §1, §2

MSTO-211H = details: Homo sapiens, biphasic mesothelioma
Description: as §1, §2

NCI-H1373 = details: Homo sapiens, lung adenocarcinoma
Description: as §1, §2

NCI-H1437 = details: Homo sapiens, lung adenocarcinoma
Description: as §1, §2

NCI-H1648 = details: Homo sapiens, lung adenocarcinoma
Description: as §1, §2

NCI-H1930 = details: Homo sapiens, small cell lung carcinoma
Description: as §1, §2

NCI-H1944 = details: Homo sapiens, lung adenocarcinoma
Description: as §1, §2

NCI-H1963 = details: Homo sapiens, small cell lung carcinoma
Description: as §1, §2

NCI-H2066 = details: squamous cell lung carcinoma
Description: as §1, §2

NCI-H2087 = details: Homo sapiens, lung adenocarcinoma
Description: as §1, §2

NCI-H2291 = details: Homo sapiens, lung adenocarcinoma
Description: as §1, §2

NCI-H2347 = details: Homo sapiens, lung adenocarcinoma
Description: as §1, §2

NCI-H2444 = details: Homo sapiens, non-small cell lung carcinoma
Description: as §1, §2

NCI-H441 = details: Homo sapiens, papillary adenocarcinoma of the lung
Description: as §1, §2

NCI-H647 = details: Homo sapiens, lung adenosquamous carcinoma
Description: as §1, §2

NUGC-3 = details: Homo sapiens, gastric adenocarcinoma
Description: as §1, §2

Panc 03.27 = details: Homo sapiens, PANC-03-27, pancreatic adenocarcinoma
Description: as §1, §2

SCC-25 = details: Homo sapiens, tongue squamous cell carcinoma
Description: as §1, §2

SCaBER = details: Homo sapiens, bladder squamous cell carcinoma
Description: as §1, §2

SF126 = details: Homo sapiens, SF-126, glioblastoma multiforme
Description: as §1, §2

SK-LU-1 = details: Homo sapiens, lung adenocarcinoma
Description: as §1, §2

SK-MEL-2 = details: Homo sapiens, malignant melanoma
Description: as §1, §2

SK-MES-1 = details: Homo sapiens, squamous cell lung carcinoma
Description: as §1, §2

SW900 = details: Homo sapiens, squamous cell lung carcinoma
Description: as §1, §2

T84 = details: Homo sapiens, colon adenocarcinoma
Description: as §1, §2

TE-11 = details: Homo sapiens, esophageal squamous cell carcinoma
Description: as §1, §2

TYK-nu = details: high grade ovarian serious adenocarcinoma
Description: as §1, §2

YD-10B = details: tongue squamous cell carcinoma
Description: as §1, §2

Measured: GI50

C[C@@H](COCCC(=O)N1CCN(c2ncc(C(F)(F)F)cn2)CC1)Nc1cn[nH]c(=O)c1C(F)(F)F [Example 561, 5-[[(2S)-1-(3-oxo-3-[4-[5-(trifluoromethyl)pyrimidin-2-yl]piperazin-1-yl]propoxy)propan-2-yl]amino]-4-(trifluoromethyl)-2,3-dihydropyridazin-3-one]
100 to 1000 nM: COR-L105 | SW900
< 100 nM: Caki-1 | EBC-1 | GCT | HCC827 | IA-LM | NCI-H1373 | NCI-H2347 | NCI-H647 | Panc 03.27 | SCC-25 | TYK-nu
≥ 1000 nM: all other assays above
